{
  "source": "ChEMBL document CHEMBL1201862",
  "about": "“PubChem BioAssay data set” (2004)",
  "key": {"Keap1/Nrf2": {"target": "Keap1/Nrf2 (Homo sapiens, UniProt Q14145)", "sequence (Q16236 whole entry)": "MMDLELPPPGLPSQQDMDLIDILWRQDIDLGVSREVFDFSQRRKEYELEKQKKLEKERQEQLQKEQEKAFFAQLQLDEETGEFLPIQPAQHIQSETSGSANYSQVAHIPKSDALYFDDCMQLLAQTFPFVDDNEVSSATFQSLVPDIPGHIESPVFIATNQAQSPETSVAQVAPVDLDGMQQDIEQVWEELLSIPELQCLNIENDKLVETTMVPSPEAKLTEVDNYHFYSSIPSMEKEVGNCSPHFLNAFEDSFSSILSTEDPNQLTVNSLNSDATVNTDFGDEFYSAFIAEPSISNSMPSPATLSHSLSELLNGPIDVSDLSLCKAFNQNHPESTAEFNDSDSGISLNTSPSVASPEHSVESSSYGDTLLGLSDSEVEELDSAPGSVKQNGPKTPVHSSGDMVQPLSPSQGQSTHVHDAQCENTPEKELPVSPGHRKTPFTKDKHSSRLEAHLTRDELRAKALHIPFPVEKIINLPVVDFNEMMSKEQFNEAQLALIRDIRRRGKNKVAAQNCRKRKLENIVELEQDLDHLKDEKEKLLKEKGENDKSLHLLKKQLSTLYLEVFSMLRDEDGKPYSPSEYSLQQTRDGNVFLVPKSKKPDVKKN", "sequence (Q14145 whole entry)": "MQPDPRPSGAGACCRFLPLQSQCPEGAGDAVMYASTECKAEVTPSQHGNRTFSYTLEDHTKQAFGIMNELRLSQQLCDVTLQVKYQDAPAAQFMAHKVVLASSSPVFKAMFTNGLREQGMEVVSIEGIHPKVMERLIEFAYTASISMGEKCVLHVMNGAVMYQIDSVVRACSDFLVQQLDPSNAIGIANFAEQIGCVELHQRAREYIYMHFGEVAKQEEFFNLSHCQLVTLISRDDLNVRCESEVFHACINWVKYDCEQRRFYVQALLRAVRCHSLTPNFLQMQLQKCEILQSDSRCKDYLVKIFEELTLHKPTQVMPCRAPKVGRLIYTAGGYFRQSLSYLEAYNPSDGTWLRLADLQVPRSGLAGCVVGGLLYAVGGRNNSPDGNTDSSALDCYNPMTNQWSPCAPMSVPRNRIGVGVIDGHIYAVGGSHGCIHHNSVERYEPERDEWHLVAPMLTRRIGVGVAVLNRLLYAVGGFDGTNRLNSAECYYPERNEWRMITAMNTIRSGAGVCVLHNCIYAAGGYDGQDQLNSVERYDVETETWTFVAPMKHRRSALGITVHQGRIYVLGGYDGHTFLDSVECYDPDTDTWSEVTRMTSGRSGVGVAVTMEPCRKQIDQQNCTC", "test": "Keap1-Nrf2 protein-protein interaction inhibitors, dose response, biochemical, fluorescence polarization, cherry-picked samples (AID 588683)"}, "ORF 73": {"target": "T1, ORF 73 (Human herpesvirus 8, UniProt O40947)", "T1 sequence (O40947 whole entry)": "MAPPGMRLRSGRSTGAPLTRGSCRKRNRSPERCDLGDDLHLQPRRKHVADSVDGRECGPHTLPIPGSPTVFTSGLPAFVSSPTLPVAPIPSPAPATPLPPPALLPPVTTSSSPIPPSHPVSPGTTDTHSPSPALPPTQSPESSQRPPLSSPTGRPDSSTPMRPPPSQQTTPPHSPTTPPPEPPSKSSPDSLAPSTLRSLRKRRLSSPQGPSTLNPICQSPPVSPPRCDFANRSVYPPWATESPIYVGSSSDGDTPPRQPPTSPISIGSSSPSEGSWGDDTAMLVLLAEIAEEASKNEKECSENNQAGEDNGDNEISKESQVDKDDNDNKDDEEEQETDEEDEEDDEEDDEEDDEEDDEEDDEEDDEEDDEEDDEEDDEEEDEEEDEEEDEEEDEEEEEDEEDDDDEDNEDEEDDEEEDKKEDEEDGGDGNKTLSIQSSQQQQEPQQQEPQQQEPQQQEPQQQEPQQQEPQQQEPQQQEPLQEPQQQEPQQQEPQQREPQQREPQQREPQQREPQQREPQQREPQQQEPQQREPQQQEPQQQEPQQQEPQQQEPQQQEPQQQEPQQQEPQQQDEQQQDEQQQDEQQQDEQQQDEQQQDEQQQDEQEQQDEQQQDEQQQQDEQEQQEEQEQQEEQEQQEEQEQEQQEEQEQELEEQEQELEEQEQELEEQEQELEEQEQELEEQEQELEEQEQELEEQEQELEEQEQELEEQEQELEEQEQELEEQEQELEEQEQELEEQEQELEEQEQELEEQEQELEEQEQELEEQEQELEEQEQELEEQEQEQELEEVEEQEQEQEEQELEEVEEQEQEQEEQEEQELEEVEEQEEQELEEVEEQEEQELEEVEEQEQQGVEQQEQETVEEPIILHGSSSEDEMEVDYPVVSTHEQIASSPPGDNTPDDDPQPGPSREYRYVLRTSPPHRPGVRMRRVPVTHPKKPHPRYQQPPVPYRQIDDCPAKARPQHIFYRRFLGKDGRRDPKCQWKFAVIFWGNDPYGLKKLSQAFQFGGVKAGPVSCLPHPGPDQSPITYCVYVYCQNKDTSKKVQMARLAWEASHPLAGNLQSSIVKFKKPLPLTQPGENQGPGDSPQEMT", "test": "inhibitors of C-LANA binding to LBS DNA, dose response, biochemical, fluorescence polarization, cherry-picked samples (AID 504725);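 note: fluorescence polarization of a labeled DNA duplex reporting LANA DNA binding; potency is for inhibitors that block LANA binding to the DNA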", "design": "species or system Human gammaherpesvirus 8"}, "[1]": {"target": "UDP-galactopyranose mutase (Mycobacterium tuberculosis, UniProt P9WIQ1)", "sequence (P9WIQ1 whole entry)": "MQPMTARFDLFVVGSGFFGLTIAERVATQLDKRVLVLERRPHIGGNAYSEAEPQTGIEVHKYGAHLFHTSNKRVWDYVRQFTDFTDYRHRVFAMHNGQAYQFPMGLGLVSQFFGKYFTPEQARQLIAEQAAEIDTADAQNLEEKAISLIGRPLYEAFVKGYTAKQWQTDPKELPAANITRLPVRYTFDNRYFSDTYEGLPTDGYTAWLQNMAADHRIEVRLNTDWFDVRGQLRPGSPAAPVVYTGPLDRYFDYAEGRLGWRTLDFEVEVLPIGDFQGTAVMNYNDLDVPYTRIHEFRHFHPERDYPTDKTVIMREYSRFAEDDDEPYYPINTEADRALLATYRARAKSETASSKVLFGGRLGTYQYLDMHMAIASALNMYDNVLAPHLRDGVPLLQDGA", "test": "Inhibitors of Mycobacterium tuberculosis UDP-galactopyranose mutase (UGM) enzyme Measured in Biochemical System Using Plate Reader - 2105-02_Inhibitor_Dose_CherryPick_Activity. [Related pubchem assays (depositor defined):AID504439]"}, "[2]": {"target": "DNA dC->dU-editing enzyme APOBEC-3A (Homo sapiens, UniProt P31941)", "sequence (P31941 whole entry)": "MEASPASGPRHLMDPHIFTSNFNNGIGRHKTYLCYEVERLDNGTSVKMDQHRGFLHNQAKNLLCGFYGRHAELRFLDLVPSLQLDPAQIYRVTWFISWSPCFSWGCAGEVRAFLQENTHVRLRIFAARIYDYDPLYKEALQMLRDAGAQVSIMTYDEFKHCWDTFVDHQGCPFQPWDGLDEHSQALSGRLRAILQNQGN", "test": "Dose Response confirmation of small molecule APOBEC3A DNA Deaminase Inhibitors via a fluorescence-based single-stranded DNA deaminase assay. [Related pubchem assays (depositor defined):AID493011, AID493024]", "assay_type": "functional"}, "[3]": {"target": "DNA dC->dU-editing enzyme APOBEC-3G (Homo sapiens, UniProt Q9HC16)", "sequence (Q9HC16 whole entry)": "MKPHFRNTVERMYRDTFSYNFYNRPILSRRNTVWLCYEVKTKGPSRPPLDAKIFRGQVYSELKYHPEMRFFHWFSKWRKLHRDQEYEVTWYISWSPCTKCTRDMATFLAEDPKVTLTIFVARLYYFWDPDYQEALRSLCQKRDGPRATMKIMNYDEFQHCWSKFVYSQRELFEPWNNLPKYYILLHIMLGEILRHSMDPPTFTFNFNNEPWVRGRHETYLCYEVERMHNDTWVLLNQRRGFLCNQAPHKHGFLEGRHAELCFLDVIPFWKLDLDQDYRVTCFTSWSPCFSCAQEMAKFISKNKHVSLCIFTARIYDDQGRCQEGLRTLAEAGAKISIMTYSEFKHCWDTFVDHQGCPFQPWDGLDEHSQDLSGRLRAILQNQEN", "assay_type": "functional"}, "Cytochrome P450 2D6": {"target": "Cytochrome P450 2D6 (Homo sapiens, UniProt P10635)", "sequence (P10635 whole entry)": "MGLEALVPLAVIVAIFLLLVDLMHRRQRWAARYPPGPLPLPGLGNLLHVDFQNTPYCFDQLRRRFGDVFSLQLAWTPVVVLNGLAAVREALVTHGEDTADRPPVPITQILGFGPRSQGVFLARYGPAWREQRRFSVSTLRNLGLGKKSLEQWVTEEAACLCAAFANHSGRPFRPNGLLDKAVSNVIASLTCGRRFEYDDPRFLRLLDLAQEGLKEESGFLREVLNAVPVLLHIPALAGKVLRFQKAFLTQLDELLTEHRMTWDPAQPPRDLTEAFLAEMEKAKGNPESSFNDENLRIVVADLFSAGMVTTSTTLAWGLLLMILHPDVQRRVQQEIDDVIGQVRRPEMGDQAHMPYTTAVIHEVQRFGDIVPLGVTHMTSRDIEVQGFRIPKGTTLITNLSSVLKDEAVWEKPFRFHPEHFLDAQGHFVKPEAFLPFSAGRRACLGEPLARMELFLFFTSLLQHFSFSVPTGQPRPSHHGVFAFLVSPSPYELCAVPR"}, "Cytochrome P450 3A4": {"target": "Cytochrome P450 3A4 (Homo sapiens, UniProt P08684)", "sequence (P08684 whole entry)": "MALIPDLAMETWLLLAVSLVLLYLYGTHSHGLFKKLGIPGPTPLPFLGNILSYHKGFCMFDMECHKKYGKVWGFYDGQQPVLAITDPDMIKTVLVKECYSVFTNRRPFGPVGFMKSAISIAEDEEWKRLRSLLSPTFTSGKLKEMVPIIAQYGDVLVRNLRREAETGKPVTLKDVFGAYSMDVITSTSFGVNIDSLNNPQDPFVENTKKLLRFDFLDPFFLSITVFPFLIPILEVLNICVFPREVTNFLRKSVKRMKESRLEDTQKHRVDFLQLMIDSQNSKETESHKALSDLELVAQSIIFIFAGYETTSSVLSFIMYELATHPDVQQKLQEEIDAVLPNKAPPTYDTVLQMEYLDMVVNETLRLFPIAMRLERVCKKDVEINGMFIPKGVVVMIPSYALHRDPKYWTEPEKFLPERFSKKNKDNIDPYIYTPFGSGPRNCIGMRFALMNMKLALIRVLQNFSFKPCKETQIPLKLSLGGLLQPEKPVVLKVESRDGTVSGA"}, "[4]": {"target": "T2, Mannose-6-phosphate isomerase (Homo sapiens, UniProt P34949)", "T2 sequence (P34949 whole entry)": "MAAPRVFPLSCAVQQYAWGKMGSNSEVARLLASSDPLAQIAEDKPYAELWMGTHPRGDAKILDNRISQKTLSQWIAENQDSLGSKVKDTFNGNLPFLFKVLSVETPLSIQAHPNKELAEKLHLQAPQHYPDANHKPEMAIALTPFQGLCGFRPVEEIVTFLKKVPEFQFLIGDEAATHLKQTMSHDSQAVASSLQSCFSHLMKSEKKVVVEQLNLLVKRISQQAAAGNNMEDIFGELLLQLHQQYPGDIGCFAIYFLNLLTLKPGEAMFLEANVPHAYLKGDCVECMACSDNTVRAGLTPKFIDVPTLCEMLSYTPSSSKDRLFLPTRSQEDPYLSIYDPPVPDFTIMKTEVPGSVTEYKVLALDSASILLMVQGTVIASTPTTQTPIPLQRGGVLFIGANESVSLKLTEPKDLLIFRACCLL", "test": "PMI enzyme inhibitors, confirmation, biochemical, fluorescence intensity (AID 1535)"}, "Phosphomannomutase 2": {"target": "T3, Phosphomannomutase 2 (Homo sapiens, UniProt O15305)", "T3 sequence (O15305 whole entry)": "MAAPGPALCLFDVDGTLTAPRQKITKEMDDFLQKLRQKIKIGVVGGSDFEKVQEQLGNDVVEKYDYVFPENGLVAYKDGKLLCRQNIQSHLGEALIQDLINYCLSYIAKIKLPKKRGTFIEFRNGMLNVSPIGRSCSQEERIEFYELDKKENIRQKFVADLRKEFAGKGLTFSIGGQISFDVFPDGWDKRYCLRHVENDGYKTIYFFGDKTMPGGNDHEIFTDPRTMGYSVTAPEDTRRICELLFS", "test": "Counter screen SAR assay for PMM2 inhibitors via a fluorescence intensity assay. [Related pubchem assays (depositor defined):AID1545, AID1574]"}, "[5]": {"target": "Phosphoethanolamine/phosphocholine phosphatase (Homo sapiens, UniProt Q8TCT1)", "sequence (Q8TCT1 whole entry)": "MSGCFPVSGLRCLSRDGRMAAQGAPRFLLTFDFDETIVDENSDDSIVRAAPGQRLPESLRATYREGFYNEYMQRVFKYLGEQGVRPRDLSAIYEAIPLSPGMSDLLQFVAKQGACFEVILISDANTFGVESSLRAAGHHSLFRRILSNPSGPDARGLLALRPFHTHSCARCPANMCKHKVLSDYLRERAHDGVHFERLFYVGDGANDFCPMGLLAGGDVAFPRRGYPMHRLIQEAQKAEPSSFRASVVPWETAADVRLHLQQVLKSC", "test": "SAR assay for compounds that inhibit PHOSPHO1. [Related pubchem assays (depositor defined):AID1545, AID1565, AID1574]"}, "[6]": {"target": "Kappa-type opioid receptor (Homo sapiens, UniProt P41145)", "sequence (P41145 whole entry)": "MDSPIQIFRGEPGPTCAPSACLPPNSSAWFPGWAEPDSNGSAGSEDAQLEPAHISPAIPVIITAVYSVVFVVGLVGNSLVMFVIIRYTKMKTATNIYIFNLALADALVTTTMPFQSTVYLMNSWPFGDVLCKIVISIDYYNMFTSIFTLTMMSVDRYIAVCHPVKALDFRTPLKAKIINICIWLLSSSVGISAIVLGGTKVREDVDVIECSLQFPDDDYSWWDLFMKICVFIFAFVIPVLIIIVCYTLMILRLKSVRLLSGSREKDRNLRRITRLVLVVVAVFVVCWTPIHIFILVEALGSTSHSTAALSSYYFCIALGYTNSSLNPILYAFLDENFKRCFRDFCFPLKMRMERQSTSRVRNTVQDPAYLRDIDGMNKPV", "test": "SAR analysis of small molecule agonists of the kappa opioid receptor via a luminescent beta-arrestin assay - Set 3. [Related pubchem assays (depositor defined):AID1777, AID1785, AID1786, AID1966, AID2133, AID2136, AID2284, AID2500]", "assay_type": "functional"}},
  "note": "Active and inactive are the calls of the source.",
  "data": [
    {"smiles": "COC(=O)C[n+]1cccc2ccccc21", "values": [
      {"measurement": "AC50", "setting": "Keap1/Nrf2", "value": "20.8 µM (active)"},
      {"measurement": "AC50", "setting": "ORF 73", "value": "6.51 µM (active)"},
      {"measurement": "AC50", "setting": "[1]", "value": "35.7 µM (active)"},
      {"measurement": "IC50", "setting": "[2]", "value": "2.81 µM (active)"},
      {"measurement": "IC50", "setting": "[3]", "value": "4.46 µM (active)"}
    ]},
    {"smiles": "Cc1ccc(CC(=O)N2CC(C)OC(C)C2)cc1", "note": "(stereo unspecified)", "values": [
      {"measurement": "AC50", "setting": "Cytochrome P450 2D6", "value": "inconclusive"},
      {"measurement": "AC50", "setting": "Cytochrome P450 3A4", "value": "inconclusive"}
    ]},
    {"smiles": "CCN(CC)S(=O)(=O)c1ccc(-n2sc3ccccc3c2=O)cc1", "values": [
      {"measurement": "IC50", "setting": "[4]", "value": "> 50 µM (inactive)"},
      {"measurement": "IC50", "setting": "Phosphomannomutase 2", "value": "> 100 µM (inactive)"},
      {"measurement": "IC50", "setting": "[5]", "value": "6.21 µM (inactive)"}
    ]},
    {"smiles": "Brc1ccc(-c2nnc(SCc3ccccc3)n2Cc2ccco2)cc1", "values": [
      {"measurement": "EC50", "setting": "[6]", "value": "> 20 µM (inactive)"}
    ]}
  ]
}
